Data from ChEMBL document CHEMBL3351485 (ACS Med Chem Lett, 2014).
Calls of active or inactive are those of the source. The rule behind the calls is not given here.

Assays:
[1] = target: T1, Sodium- and chloride-dependent GABA transporter 1 (Homo sapiens, UniProt P30531); experiment: Inhibition of human GAT1 transfected in CHO cells assessed as [3H]GABA uptake after 20 mins by liquid scintillation counting analysis; format: cell-based
Target sequence in this assay (P30531 whole entry): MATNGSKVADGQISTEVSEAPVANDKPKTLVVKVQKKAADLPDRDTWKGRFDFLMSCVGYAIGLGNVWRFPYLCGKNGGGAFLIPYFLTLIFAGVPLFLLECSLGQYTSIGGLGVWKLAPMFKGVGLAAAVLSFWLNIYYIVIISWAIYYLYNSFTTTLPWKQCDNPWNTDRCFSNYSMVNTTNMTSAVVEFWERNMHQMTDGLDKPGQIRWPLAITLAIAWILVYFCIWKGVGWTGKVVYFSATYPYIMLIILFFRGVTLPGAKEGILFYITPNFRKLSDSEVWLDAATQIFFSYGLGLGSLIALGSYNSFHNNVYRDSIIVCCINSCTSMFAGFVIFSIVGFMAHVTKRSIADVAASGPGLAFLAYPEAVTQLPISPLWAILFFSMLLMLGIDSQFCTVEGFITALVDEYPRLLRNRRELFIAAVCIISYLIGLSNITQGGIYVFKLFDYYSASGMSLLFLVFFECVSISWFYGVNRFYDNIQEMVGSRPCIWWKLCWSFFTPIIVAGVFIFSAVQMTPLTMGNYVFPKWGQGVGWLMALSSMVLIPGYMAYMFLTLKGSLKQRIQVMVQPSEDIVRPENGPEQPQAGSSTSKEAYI

[2] = target: T2, Sodium- and chloride-dependent GABA transporter 2 (Homo sapiens, UniProt Q9NSD5); experiment: Inhibition of human GAT2 transfected in CHO cells assessed as [3H]GABA uptake after 20 mins by liquid scintillation counting analysis; format: cell-based
T2 sequence (Q9NSD5 whole entry): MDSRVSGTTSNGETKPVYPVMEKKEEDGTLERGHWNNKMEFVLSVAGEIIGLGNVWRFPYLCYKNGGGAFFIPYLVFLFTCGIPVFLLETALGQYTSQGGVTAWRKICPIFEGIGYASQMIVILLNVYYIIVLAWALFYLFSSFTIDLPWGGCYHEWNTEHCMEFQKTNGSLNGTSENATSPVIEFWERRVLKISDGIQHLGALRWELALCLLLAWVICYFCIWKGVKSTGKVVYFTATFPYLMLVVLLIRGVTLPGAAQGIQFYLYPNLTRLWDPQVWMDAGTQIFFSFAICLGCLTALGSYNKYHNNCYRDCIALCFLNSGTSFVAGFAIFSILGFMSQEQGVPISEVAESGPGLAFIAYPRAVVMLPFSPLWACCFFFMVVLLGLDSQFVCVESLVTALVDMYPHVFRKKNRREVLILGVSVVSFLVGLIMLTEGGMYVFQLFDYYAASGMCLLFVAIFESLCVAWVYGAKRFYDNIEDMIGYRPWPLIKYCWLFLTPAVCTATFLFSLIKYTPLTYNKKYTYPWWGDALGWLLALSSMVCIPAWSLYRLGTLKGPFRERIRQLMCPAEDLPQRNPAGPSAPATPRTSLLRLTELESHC

[3] = target: T3, Sodium- and chloride-dependent GABA transporter 3 (Homo sapiens, UniProt P48066); experiment: Inhibition of human GAT3 transfected in CHO cells assessed as [3H]GABA uptake after 20 mins by liquid scintillation counting analysis; format: cell-based
T3 sequence (P48066 whole entry): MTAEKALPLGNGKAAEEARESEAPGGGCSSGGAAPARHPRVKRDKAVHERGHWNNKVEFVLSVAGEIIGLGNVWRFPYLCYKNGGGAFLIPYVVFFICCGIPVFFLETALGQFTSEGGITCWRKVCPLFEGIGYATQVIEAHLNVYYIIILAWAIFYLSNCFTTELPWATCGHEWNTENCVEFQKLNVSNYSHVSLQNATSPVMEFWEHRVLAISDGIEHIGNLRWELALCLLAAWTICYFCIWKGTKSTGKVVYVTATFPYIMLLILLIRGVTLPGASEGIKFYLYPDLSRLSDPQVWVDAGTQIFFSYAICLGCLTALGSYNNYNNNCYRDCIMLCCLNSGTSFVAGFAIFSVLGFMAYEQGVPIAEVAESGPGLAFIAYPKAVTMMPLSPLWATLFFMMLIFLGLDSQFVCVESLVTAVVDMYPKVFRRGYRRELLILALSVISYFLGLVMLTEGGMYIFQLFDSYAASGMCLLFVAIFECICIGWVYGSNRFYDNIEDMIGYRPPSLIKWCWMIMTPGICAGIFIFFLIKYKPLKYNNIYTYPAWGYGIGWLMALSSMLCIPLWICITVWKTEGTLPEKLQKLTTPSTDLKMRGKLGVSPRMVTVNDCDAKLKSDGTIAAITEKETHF

[4] = target: T1, Sodium- and chloride-dependent GABA transporter 1; experiment: Inhibition of human GAT1 transfected in CHO cells assessed as [3H]GABA uptake at 100 uM after 20 mins by liquid scintillation counting analysis; format: cell-based
Target sequence in this assay (P30531 whole entry, looked up): as the sequence (P30531 whole entry) above

[5] = target: T4, Sodium- and chloride-dependent betaine transporter (Homo sapiens) (UniProt P48065); experiment: Inhibition of human BGT1 transfected in CHO cells assessed as [3H]GABA uptake at 100 uM after 20 mins by liquid scintillation counting analysis; format: cell-based
T4 sequence (whole entry): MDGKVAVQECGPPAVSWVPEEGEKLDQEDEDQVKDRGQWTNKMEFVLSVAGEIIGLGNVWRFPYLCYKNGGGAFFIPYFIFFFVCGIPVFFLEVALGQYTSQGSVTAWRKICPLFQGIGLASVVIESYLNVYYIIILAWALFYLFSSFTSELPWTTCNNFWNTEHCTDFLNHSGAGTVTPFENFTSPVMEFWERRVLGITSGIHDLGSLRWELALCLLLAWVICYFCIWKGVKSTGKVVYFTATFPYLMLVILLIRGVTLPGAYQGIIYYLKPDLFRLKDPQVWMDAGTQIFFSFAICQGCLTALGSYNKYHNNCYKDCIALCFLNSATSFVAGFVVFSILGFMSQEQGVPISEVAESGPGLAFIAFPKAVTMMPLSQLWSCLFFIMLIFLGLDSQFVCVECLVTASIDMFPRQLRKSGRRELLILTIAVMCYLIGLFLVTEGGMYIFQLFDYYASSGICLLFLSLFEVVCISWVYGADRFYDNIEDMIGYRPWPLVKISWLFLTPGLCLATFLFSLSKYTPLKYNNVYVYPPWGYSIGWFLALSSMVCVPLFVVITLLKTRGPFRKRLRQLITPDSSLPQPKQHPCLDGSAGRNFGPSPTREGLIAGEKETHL

[6] = target: T5, Sodium- and chloride-dependent GABA transporter 3 (Homo sapiens) (UniProt P48066); details: CHO, 100 uM
T5 sequence (whole entry): T3 sequence (P48066 whole entry)
Description: Inhibition of human GAT3 transfected in CHO cells assessed as [3H]GABA uptake at 100 uM after 20 mins by liquid scintillation counting analysis

[7] = target: T6, Sodium- and chloride-dependent GABA transporter 2 (Homo sapiens) (UniProt Q9NSD5); experiment: Inhibition of human GAT2 transfected in CHO cells assessed as [3H]GABA uptake at 100 uM after 20 mins by liquid scintillation counting analysis; format: cell-based
T6 sequence (whole entry): T2 sequence (Q9NSD5 whole entry)

[8] = target: T7, Sodium- and chloride-dependent betaine transporter (Homo sapiens, UniProt P48065); experiment: Inhibition of human BGT1 transfected in CHO cells assessed as [3H]GABA uptake after 20 mins by liquid scintillation counting analysis; format: cell-based
T7 sequence (P48065 whole entry): T4 sequence (whole entry)

SMILES | IC50 [1] [µM] | IC50 [2] [µM] | IC50 [3] [µM] | inhibition [4] | inhibition [5] | inhibition [6] | inhibition [7] | IC50 [8] [µM]
COc1ccc(C(OCCN2CCC[C@H](C(=O)O)C2)(c2ccc(OC)cc2)c2ccc(OC)cc2)cc1 | > 100 | – | – | – | – | – | – | –
NCCC(=O)O [BETA-ALANINE] | – | > 100 | – | – | – | – | – | –
COc1ccccc1C1(O)CCN(CCCn2c3ccccc3c3ccccc32)CC1 | 11.4 | 6.2 | 8.92 | – | – | – | – | –
N[C@@]12CC[C@@H](C(=O)O)[C@@H]1C2 | – | – | – | inactive | 63.9% | inactive | inactive | –
N[C@H]1C[C@H]1CC(=O)O | > 100 | 36.9 | 13.9 | – | Active | Active | – | 5.48
N[C@@]12CC[C@H](C(=O)O)[C@@H]1C2 | > 100 | > 100 | 76.3 | 12.2% | 97.6% | 48.2% | 29% | 0.59
